Data: US20150266850A1 (E.I.DU PONT DE NEMOURS AND COMPANY, priority 2012, published 2015)
Marks after values point to notes of the source that are not given here.

Key:
Assay type in all cases: in vivo
Details in all cases: 100 = 100% disease control
Septoria nodorum = assay: Test D: wheat glume blotch, preventive spray on wheat seedlings, visual disease rating
Source text: (§1) General protocol for preparing test suspensions for Tests A-E: the test compounds were first dissolved in acetone in an amount equal to 11% of the final volume and then suspended at the desired concentration (in ppm) in acetone and purified water (50/50 mix by volume) containing 250 ppm of the surfactant Trem® 014 (polyhydric alcohol esters). The resulting test suspensions were then used in Tests A-E. Spraying a 200 ppm test suspension to the point of run-off on the test plants was the equivalent of a rate of 800 g/ha.
The test suspension was sprayed to the point of run-off on wheat seedlings. The following day the seedlings were inoculated with a spore suspension of Septoria nodorum (the causal agent of wheat glume blotch) and incubated in a saturated atmosphere at 20° C. for 48 h, and then moved to a growth chamber at 20° C. for 7 days, after which time disease ratings were visually made.
(§2) Results for Tests A-E are given in Table A. In the Table, a rating of 100 indicates 100% disease control and a rating of 0 indicates no disease control (relative to the controls). A dash (-) indicates no test results. All results are for 200 ppm except where followed by an “*”, which indicates 40 ppm or “**”, which indicates 50 ppm.

Septoria tritici = assay: Test C: wheat leaf blotch, preventive spray on wheat seedlings, visual disease rating
Source text: as §1
The test suspension was sprayed to the point of run-off on wheat seedlings. The following day the seedlings were inoculated with a spore suspension of Septoria tritici (the causal agent of wheat leaf blotch) and incubated in a saturated atmosphere at 24° C. for 48 h, and then moved to a growth chamber at 20° C. for 19 days, after which time disease ratings were visually made.
as §2

Botrytis cinerea = assay: Test E: tomato botrytis, preventive spray on tomato seedlings, visual disease rating
Source text: as §1
The test suspension was sprayed to the point of run-off on tomato seedlings. The following day the seedlings were inoculated with a spore suspension of Botrytis cinerea (the causal agent of tomato botrytis) and incubated in saturated atmosphere at 20° C. for 48 h, and then moved to a growth chamber at 27° C. for 3 additional days, after which time disease ratings were visually made.
as §2

[1] = tested on: Erysiphe graminis f. sp. tritici; assay: Test A: wheat powdery mildew, preventive spray on wheat seedlings, visual disease rating
Source text: as §1
The test suspension was sprayed to the point of run-off on wheat seedlings. The following day the seedlings were inoculated with a spore dust of Erysiphe graminis f. sp. tritici, (the causal agent of wheat powdery mildew) and incubated in a growth chamber at 20° C. for 8 days, after which time disease ratings were visually made.
as §2

[2] = tested on: Puccinia recondita f sp. tritici; assay: Test B: wheat leaf rust, preventive spray on wheat seedlings, visual disease rating
Source text: as §1
The test suspension was sprayed to the point of run-off on wheat seedlings. The following day the seedlings were inoculated with a spore suspension of Puccinia recondita f sp. tritici (the causal agent of wheat leaf rust) and incubated in a saturated atmosphere at 20° C. for 24 h, and then moved to a growth chamber at 20° C. for 7 days, after which time disease ratings were visually made.
as §2

| SMILES | Test D disease control rating (Septoria nodorum; 40 ppm (*)) | Test E disease control rating (Botrytis cinerea; 40 ppm (*)) | Test A disease control rating ([1]; 40 ppm (*)) | Test B disease control rating ([2]; 40 ppm (*)) | other results |
| --- | --- | --- | --- | --- | --- |
| COC(=O)NCc1cc(-n2ccc(-c3ccc(Cl)nc3OC)n2)ccc1C [Cmpd 45] | 100* % | 39* % | 98* % | 100* % | Test C disease control rating (Septoria tritici; 40 ppm (*)): 95* % |
| COC(=O)NCc1cc(-n2ccc(-c3ccc(I)cc3Cl)n2)ccc1C [Cmpd 92] | 100* % | 33* % | 99* % | 100* % |  |
| CCOc1cc(OC)ccc1-c1cnn(-c2ccc(C)c(CNC(=O)OC)c2)n1 [Cmpd 88] | 100* % | 0* % | 100* % | 100* % |  |
| COC(=O)NCc1cc(-n2ncc(-c3ccc(OC)cc3OCC#N)n2)ccc1C [Cmpd 73] | 100* % | 0* % | 99* % | 100* % |  |
| C=CCOc1cc(OC)ccc1-c1cnn(-c2ccc(C)c(CNC(=O)OC)c2)n1 [Cmpd 75] | 100* % | 8* % | 90* % | 100* % |  |
| COC(=O)NCc1cc(-c2ccn(-c3ccc(OC)cc3F)n2)ccc1C [Cmpd 19] |  |  |  |  | Test C disease control rating (Septoria tritici; 200 ppm): 100%; Test E disease control rating (Botrytis cinerea; 200 ppm): 37%; Test A disease control rating ([1]; 200 ppm): 100%; Test B disease control rating ([2]; 200 ppm): 100% |
| COC(=O)NCc1cc(-n2ncc(-c3ccc(C)cc3C)n2)ccc1C [Compound 97] | 100* % | 43* % | 99* % | 100* % |  |
| COC(=O)NCc1cc(-n2ccc(-c3ccc(OC)cc3C3CC3)n2)ccc1C [Cmpd 82] | 100* % | 0* % | 99* % | 100* % |  |
| COC(=O)NCc1cc(-n2ncc(-c3ccc(OC)cc3[N+](=O)[O-])n2)ccc1C [Cmpd 85] | 100* % | 0* % | 99* % | 100* % |  |
| COC(=O)NCc1cc(-c2ccn(-c3ccc(C#N)cc3C#N)n2)ccc1C [Cmpd 93] |  |  |  |  | Test D disease control rating (Septoria nodorum; 200 ppm): 64%; Test E disease control rating (Botrytis cinerea; 200 ppm): 0%; Test A disease control rating ([1]; 200 ppm): 0%; Test B disease control rating ([2]; 200 ppm): 0% |
| COC(=O)NCc1cc(-n2ncc(-c3ccc(I)cc3OC)n2)ccc1C [Cmpd 95] | 100* % | 0* % | 98* % | 100* % |  |
| COC(=O)NCc1cc(-n2ncc(-c3ccc(OC)cc3I)n2)ccc1C [Cmpd 96] | 100* % | 70* % | 99* % | 100* % |  |
| COC(=O)NCc1cc(-n2ncc(-c3ccc(C)cc3OCC#N)n2)ccc1C [Cmpd 98] | 100* % | 6* % | 95* % | 100* % |  |
| COC(=O)NCc1cc(-n2ncc(-c3ccc(OC)cc3I)[n+]2[O-])ccc1C [Compound 94] |  |  |  |  | pest or weed control at 40 ppm (Septoria nodorum; Parastagonospora nodorum, 216 h, 40 ppm (*)): 100%; pest or weed control at 40 ppm (Botrytis cinerea; Botrytis cinerea, 120 h, 40 ppm (*)): 11%; pest or weed control at 40 ppm ([1]; Blumeria graminis, 192 h, 40 ppm (*)): 98%; pest or weed control at 40 ppm ([2]; 192 h, 40 ppm (*)): 100% |
| C#Cc1cc(OC)ccc1-c1cnn(-c2ccc(C)c(CNC(=O)OC)c2)n1 [Cmpd 47] | 100* % | 0* % | 99* % | 100* % |  |
| COC(=O)NCc1cc(-n2ccc(-c3ccc(C)cc3Br)n2)ccc1C [Cmpd 127] | 100* % |  | 100* % | 100* % | Test C disease control rating (Septoria tritici; 40 ppm (*)): 93* % |
| COC(=O)NCc1cc(-n2ccc(-c3ccc(C(F)(F)F)cc3C)n2)ccc1C [Cmpd 100] | 100* % |  | 99* % | 100* % | Test C disease control rating (Septoria tritici; 40 ppm (*)): 97* % |
| CCc1cc(OC)ccc1-c1ccn(-c2ccc(C)c(CNC(=O)OC)c2)n1 [Cmpd 83] | 100* % | 0* % | 99* % | 100* % |  |
| C#Cc1ccc(-c2cnn(-c3ccc(C)c(CNC(=O)OC)c3)n2)c(OC)c1 [Cmpd 99] | 100* % | 14* % | 99* % | 100* % |  |
| CCOc1ccc(-c2cnn(-c3ccc(C)c(CNC(=O)OC)c3)n2)c(C)c1 [Cmpd 107] | 100* % |  | 99* % | 100* % | Test C disease control rating (Septoria tritici; 40 ppm (*)): 99* % |
| C#CCOc1cc(OC)ccc1-c1cnn(-c2ccc(C)c(CNC(=O)OC)c2)n1 [Cmpd 74] | 100* % | 8* % | 98* % | 100* % |  |
| C#CCOc1ccc(-c2cnn(-c3ccc(C)c(CNC(=O)OC)c3)n2)c(C)c1 [Cmpd 106] | 100* % |  | 99* % | 100* % | Test C disease control rating (Septoria tritici; 40 ppm (*)): 98* % |
| COC(=O)NCc1cc(-n2ccc(-c3ccc(C)nc3OC)n2)ccc1C [Cmpd 131] | 100* % |  | 99* % | 100* % | Test C disease control rating (Septoria tritici; 40 ppm (*)): 97* % |
| CCOc1cc(C)ccc1-c1ccn(-c2ccc(C)c(CNC(=O)OC)c2)n1 [Cmpd 138] | 100* % |  | 99* % | 100* % | Test C disease control rating (Septoria tritici; 40 ppm (*)): 95* % |
